The text below walks through data of patent US20220024921A1, “1,3,4-OXADIAZOLONE COMPOUND AND PHARMACEUTICAL” (NIPPON SHINYAKU CO., LTD., priority 2018, published 2022).

SMILES strings stand for the structures. Where a name gives a salt, the structure may show the parent alone.

The target in assay [1] is T1, PIM1 serine/threonine kinase (Homo sapiens, UniProt P11309).
T1 construct: purchased Carna Bioscience, Inc
Briefly: PIM1 serine/threonine kinase inhibitory effect. The format is biochemical. The conditions noted are these: PIM1 serine/threonine kinase activity; ATP 40 μM; 30° C., 30 minutes. The method, boiled down:
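Compounds were tested in duplicate from 0.01 to 10000 nM final against PIM1 kinase (0.15 μg/ml). The reaction ran for 30 minutes at 30° C with 40 μM ATP and 0.5 μM biotin-tagged substrate at pH 7.0. Phosphorylation was read by time-resolved FRET (OD665/OD620) after 1 h; IC50 by non-linear fit.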

In assay [2] the target is PIM1 transgenic cells (Ba/F3) (Homo sapiens, UniProt P11309). Briefly: Proliferation inhibitory effect on PIM1 transgenic cells. The format is cell-based, mouse. The conditions noted are these: proliferation inhibition, 72 hours, Cell Counting Kit-8, read-out: PIM1 IC50. The method, boiled down:
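Mouse Ba/F3 pro-B cells were retrovirally transduced with human PIM1 so that their proliferation depends on PIM1. Cells were treated with compound at 1–10000 nM final for 72 h, then read by CCK-8 (OD450−OD650). Inhibition was set against DMSO (0%) and no-cell blank (100%), and IC50 was obtained by two-parameter logistic regression.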
On the technique in general: Tetrazolium dyes change colour on reduction, which living cells bring about.

T1 sequence (P11309 whole entry): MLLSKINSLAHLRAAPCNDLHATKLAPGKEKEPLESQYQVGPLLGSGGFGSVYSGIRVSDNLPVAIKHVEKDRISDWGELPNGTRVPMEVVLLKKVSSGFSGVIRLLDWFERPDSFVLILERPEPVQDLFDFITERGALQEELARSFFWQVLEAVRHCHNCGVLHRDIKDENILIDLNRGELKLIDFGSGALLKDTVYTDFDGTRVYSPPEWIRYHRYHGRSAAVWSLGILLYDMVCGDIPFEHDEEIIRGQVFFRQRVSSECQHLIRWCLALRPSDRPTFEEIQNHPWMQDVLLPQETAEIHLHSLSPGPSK
Chain of PIM1 transgenic cells (Ba/F3) (P11309 whole entry, stated change not applied): as the sequence (P11309 whole entry) above

One may read the IC50 as the midpoint of a concentration-inhibition curve. For the compound `NCc1ccc(-c2cc(-c3n[nH]c(=O)o3)ccc2C(F)(F)F)cc1` [Example 20, 5-[4′-(aminomethyl)-6-(trifluoromethyl)[1,1′-biphenyl]-3-yl]-1,3,4-oxadiazol-2(3H)-one hydrochloride], in assay [1], the IC50 amounted to 33 nM. Besides, in assay [2], the GI50 is 4500 nM.
Take `C[C@H](Nc1cc(-c2n[nH]c(=O)o2)cc(F)c1C(F)(F)F)C1(F)CCNCC1` [Example 159, 5-[3-fluoro-5-{[(1S)-1-(4-fluoropiperidin-4-yl)ethyl]amino}-4-(trifluoromethyl)phenyl]-1,3,4-oxadiazol-2(3H)-one hydrochloride]: in assay [1], the midpoint of inhibition, the IC50, lay at 2.8 nM. For the same compound, the GI50 in assay [2] was determined as 30 nM.
For `CC[C@H]1CNCC[C@H]1[C@H](C)Nc1cc(-c2n[nH]c(=O)o2)cc(F)c1C(F)(F)F` [Example 226, 5-[3-({(1S)-1-[(3R,4R)-3-ethylpiperidin-4-yl]ethyl}amino)-5-fluoro-4-(trifluoromethyl)phenyl]-1,3,4-oxadiazol-2(3H)-one], in that order: 5.4 nM and 83 nM.
Turning to `C[C@H](Nc1cc(-c2n[nH]c(=O)o2)c(F)cc1Cl)C1CCNCC1` [Example 95, 5-(4-chloro-2-fluoro-5-{[(1S)-1-(piperidin-4-yl)ethyl]amino}phenyl)-1,3,4-oxadiazol-2(3H)-one hydrochloride], the IC50 in assay [1] worked out at 11 nM. Besides, in assay [2], the GI50 amounted to 590 nM.
The compound `COc1c(Cl)cc(-c2n[nH]c(=O)o2)cc1N[C@@H](C)C1CCNCC1` [Example 104, 5-(3-chloro-4-methoxy-5-{[(1S)-1-(piperidin-4-yl)ethyl]amino}phenyl)-1,3,4-oxadiazol-2(3H)-one hydrochloride] displayed an IC50 in assay [1] of 4 nM. The GI50 in assay [2] was 110 nM.
The compound `O=c1[nH]nc(-c2ccc(C(F)(F)F)c(NC[C@H]3CCCNC3)c2)o1` [Example 53, 5-[3-({[(3S)-piperidin-3-yl]methyl}amino)-4-(trifluoromethyl)phenyl]-1,3,4-oxadiazol-2(3H)-one hydrochloride] registered an IC50 in assay [1] of 15 nM. Moreover, the GI50 in assay [2] was found to be 1600 nM.
On to `C[C@H]1CNCC[C@H]1CNc1cc(-c2n[nH]c(=O)o2)ccc1C(F)(F)F` [Example 141, 5-[3-({[(3R,4R)-3-methylpiperidin-4-yl]methyl}amino)-4-(trifluoromethyl)phenyl]-1,3,4-oxadiazol-2(3H)-one hydrochloride], for which, in assay [1], inhibition was half-maximal at 7.1 nM (IC50). Moreover, the GI50 in assay [2] came out at 250 nM.
In assay [1], `Cc1cc(-c2n[nH]c(=O)o2)cc(N[C@@H](C)C2CCNCC2)c1Cl` [Example 84, 5-(4-chloro-3-methyl-5-{[(1S)-1-(piperidin-4-yl)ethyl]amino}phenyl)-1,3,4-oxadiazol-2(3H)-one dihydrochloride] showed an IC50 of 1.1 nM. Besides, the GI50 in assay [2] worked out at 36 nM.
In assay [1], `CC(CCCCN)Nc1cc(-c2n[nH]c(=O)o2)ccc1C(F)(F)F` (stereo not drawn) [Example 5, 5-{3-[(6-aminohexan-2-yl)amino]-4-(trifluoromethyl)phenyl}-1,3,4-oxadiazol-2(3H)-one hydrochloride] gave a half-inhibitory concentration (IC50) of 11 nM. The GI50 in assay [2] worked out at 500 nM.
In the same order, the values of `CC(Oc1cc(-c2n[nH]c(=O)o2)ccc1Br)C1CCNCC1` (stereo not drawn) [Example 236] are 8.7 nM and 180 nM.
In the same order, the values of `O=c1[nH]nc(-c2ccc(Cl)c(NC[C@@H]3CCNC3)c2)o1` [Example 49, 5-[4-chloro-3-({[(3R)-pyrrolidin-3-yl]methyl}amino)phenyl]-1,3,4-oxadiazol-2(3H)-one hydrochloride] are 18 nM and 7600 nM.
As for `CN(CC1CCNCC1)c1cc(-c2n[nH]c(=O)o2)ccc1C(F)(F)F` [Example 51, 5-[3-{methyl[(piperidin-4-yl)methyl]amino}-4-(trifluoromethyl)phenyl]-1,3,4-oxadiazol-2(3H)-one hydrochloride], half-maximal inhibition in assay [1] (IC50) was put at 14 nM. Also, the GI50 in assay [2] stood at 3100 nM.
